# Experiments:
# [1] = test system: primary human fibroblasts derived from IPF patients (LL29 cells); assay: Inhibition of fibrosis: TGF-β1-treated primary human fibroblasts from IPF patients (LL29), αSMA staining; type: cell-based; details: Fibroblast, 96 h, TGF-β1 20 ng/mL, 4 days, % αSMA-positive cells
# Source text: The above synthesized compounds were screened using primary human fibroblasts (derived from IPF patients) treated with TGF-β1 to determine their ability to inhibit the fibrotic process.
# Primary human fibroblasts derived from IPF patients (LL29 cells) [^1Xiaoqiu Liu, et. al., “Fibrotic Lung Fibroblasts Show Blunted Inhibition by cAMP Due to Deficient cAMP Response Element-Binding Protein Phosphorylation”, Journal of Pharmacology and Experimental Therapeutics (2005), 315(2), 678-687; ^2Watts, K. L., et. al., “RhoA signaling modulates cyclin D1 expression in human lung fibroblasts; implications for idiopathic pulmonary fibrosis”, Respiratory Research (2006), 7(1), 88] were obtained from American Type Culture Collection (ATCC) and expanded in F12 medium supplemented with 15% Fetal Bovine Serum and Penicillin/Streptomycin.
# Each compound was dissolved in DMSO as a 10 mM stock and used to prepare compound source plates. Serial dilution (1:2, 11-point dose-response curves from 10 μM to 1.87 nM) and compound transfer was performed using the ECHO 550 (Labcyte, Sunnyvale, Calif.) into 384-well clear bottom assay plates (Greiner Bio-One) with appropriate DMSO backfill for a final DMSO concentration of 0.1%. LL29 cells were plated at 1,500 cells/well in 80 μl/well F12 medium supplemented with 1% Fetal Bovine Serum. One hour after addition of the cells, TGF-β1 (Peprotech; 20 ng/mL) was added to the plates to induce fibrosis (ref 1 and 2 above). Wells treated with TGF-β1 and containing DMSO were used as controls. Cells were incubated at 37° C. and 5% CO2 for 4 days. Following incubation for 4 days, SYTOX green nucleic acid stain (Life Technologies [Thermo Fisher Scientific]) was added to the wells at a final concentration of 1 uM and incubated at room temperature for 30 min. Cells were then fixed using 4% formaldehyde (Electron Microscopy Sciences), washed 3 times with PBS followed by blocking and permeabilization using 3% Bovine Serum Albumin (BSA; Sigma) and 0.3% Triton X-100 (Sigma) in PBS. Cells were then stained with antibody specific to α-smooth muscle actin (αSMA; Abcam) (ref 1 and 2 above) in 3% Bovine Serum Albumin (BSA; Sigma) and 0.3% Triton X-100 (Sigma) in PBS, and incubated overnight at 4° C. Cells were then washed 3 times with PBS, followed by incubation with Alexa Flor-647 conjugated secondary antibody (Life Technologies [Thermo Fisher Scientific]) and DAPI at room temperature for 1 hour. Cells were then washed 3 times with PBS and plates were sealed for imaging. αSMA staining was imaged by excitation at 630 nm and emission at 665 nm and quantified using the Compartmental Analysis program on the CellInsight CX5 (Thermo Scientific). Dead or apoptotic cells were excluded from analysis based on positive SYTOX green staining. % of total cells positive for αSMA were counted in each well and normalized to the average of 11 wells treated with TGF-β1 on the same plate using Dotmatics' Studies Software. The normalized averages (fold change over untreated) of 3 replicate wells for each compound concentration were used to create dose-responses curves and EC50 values were calculated using non-linear regression curve fit in the Dotmatics' Studies Software. The EC50 values are reported.
# [2] = test system: Wnt activity (Sp5-Luc reporter, SW480 colon carcinoma cells); assay: Screening assay for Wnt activity: Sp5-Luc reporter gene assay in SW480 cells; type: cell-based; details: Homo sapiens, 42 h incubation, luminescence
# Method in brief: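 IC50 values come from variable-slope four-parameter fits of luciferase signal normalized to DMSO wells. Stable Sp5-Luc reporter SW480 colon carcinoma cells were exposed to compounds in a 3-fold dilution series (source plates from 10 mM stock) for forty-two hours at 37 °C.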
Compound,IC50 [2],EC50 [1]
"CC(C)C(=O)Nc1cncc(-c2ccc3[nH]nc(-c4nc5c(N6CCN(C)CC6)nccc5[nH]4)c3c2)c1 [Compound 217, N-(5-(3-(4-(4-Methylpiperazin-1-yl)-1H-imidazo[4,5-c]pyridin-2-yl)-1H-indazol-5-yl)pyridin-3-yl)isobutyramide]",245 nM,4450 nM
"CN1CCN(c2nccc3[nH]c(-c4n[nH]c5ccc(-c6cncc(CN7CCCCC7)c6)cc45)nc23)CC1 [Compound 223, 4-(4-Methylpiperazin-1-yl)-2-(5-(5-(piperidin-1-ylmethyl)pyridin-3-yl)-1H-indazol-3-yl)-1H-imidazo[4,5-c]pyridine]",172 nM,1110 nM
"CN1CCN(c2nccc3[nH]c(-c4n[nH]c5ccc(-c6cncc(NC(=O)CC(C)(C)C)c6)cc45)nc23)CC1 [Compound 224, 3,3-Dimethyl-N-(5-(3-(4-(4-methylpiperazin-1-yl)-1H-imidazo[4,5-c]pyridin-2-yl)-1H-indazol-5-yl)pyridin-3-yl)butanamide]",673 nM,1090 nM
"CN1CCN(c2nccc3[nH]c(-c4n[nH]c5ccc(-c6cncc(NC(=O)C7CCCC7)c6)cc45)nc23)CC1 [Compound 229, N-(5-(3-(4-(4-Methylpiperazin-1-yl)-1H-imidazo[4,5-c]pyridin-2-yl)-1H-indazol-5-yl)pyridin-3-yl)cyclopentanecarboxamide]",711 nM,9990 nM
"CC(C)(C)C(=O)Nc1cncc(-c2ccc3[nH]nc(-c4nc5c(-c6ccsc6)nccc5[nH]4)c3c2)c1 [Compound 242, N-(5-(3-(4-(Thiophen-3-yl)-1H-imidazo[4,5-c]pyridin-2-yl)-1H-indazol-5-yl)pyridin-3-yl)pivalamide]",27.4 nM,1180 nM
"O=C(Cc1ccccc1)Nc1cncc(-c2ccc3[nH]nc(-c4nc5c(-c6ccsc6)nccc5[nH]4)c3c2)c1 [Compound 244, 2-Phenyl-N-(5-(3-(4-(thiophen-3-yl)-1H-imidazo[4,5-c]pyridin-2-yl)-1H-indazol-5-yl)pyridin-3-yl)acetamide]",69.1 nM,203 nM
"O=C(Nc1cncc(-c2ccc3[nH]nc(-c4nc5c(-c6ccsc6)nccc5[nH]4)c3c2)c1)c1ccccc1 [Compound 245, N-(5-(3-(4-(Thiophen-3-yl)-1H-imidazo[4,5-c]pyridin-2-yl)-1H-indazol-5-yl)pyridin-3-yl)benzamide]",40 nM,17 nM
"O=C(Nc1cncc(-c2ccc3[nH]nc(-c4nc5c(-c6ccsc6)nccc5[nH]4)c3c2)c1)C1CC1 [Compound 253, N-(5-(3-(4-(Thiophen-3-yl)-1H-imidazo[4,5-c]pyridin-2-yl)-1H-indazol-5-yl)pyridin-3-yl)cyclopropanecarboxamide]",126 nM,544 nM
"O=C(Nc1cncc(-c2ccc3[nH]nc(-c4nc5c(-c6ccsc6)nccc5[nH]4)c3c2)c1)C1CCCC1 [Compound 255, N-(5-(3-(4-(Thiophen-3-yl)-1H-imidazo[4,5-c]pyridin-2-yl)-1H-indazol-5-yl)pyridin-3-yl)cyclopentanecarboxamide]",59.4 nM,1220 nM
"CCNCc1cncc(-c2ccc3[nH]nc(-c4nc5c(-c6ccoc6)nccc5[nH]4)c3c2)c1 [Compound 266, N-((5-(3-(4-(Furan-3-yl)-1H-imidazo[4,5-c]pyridin-2-yl)-1H-indazol-5-yl)pyridin-3-yl)methyl)ethanamine]",36 nM,9 nM
"O=C(Nc1cncc(-c2ccc3[nH]nc(-c4nc5c(-c6ccoc6)nccc5[nH]4)c3c2)c1)C1CCC1 [Compound 280, N-(5-(3-(4-(Furan-3-yl)-1H-imidazo[4,5-c]pyridin-2-yl)-1H-indazol-5-yl)pyridin-3-yl)cyclobutanecarboxamide]",27.9 nM,1240 nM
"c1cc2[nH]c(-c3n[nH]c4ccc(-c5cncc(CNCC6CCCC6)c5)cc34)nc2c(-c2ccoc2)n1 [Compound 284, 1-Cyclopentyl-N-((5-(3-(4-(furan-3-yl)-1H-imidazo[4,5-c]pyridin-2-yl)-1H-indazol-5-yl)pyridin-3-yl)methyl)methanamine]",> 10000 nM,9 nM
"CC(C)C(=O)Nc1cncc(-c2ccc3[nH]nc(-c4nc5c(-c6cccs6)nccc5[nH]4)c3c2)c1 [Compound 295, N-(5-(3-(4-(Thiophen-2-yl)-1H-imidazo[4,5-c]pyridin-2-yl)-1H-indazol-5-yl)pyridin-3-yl)isobutyramide]",30.8 nM,186 nM
"CN(C)Cc1cncc(-c2ccc3[nH]nc(-c4nc5c(-c6cccs6)nccc5[nH]4)c3c2)c1 [Compound 299, N,N-Dimethyl-1-(5-(3-(4-(thiophen-2-yl)-1H-imidazo[4,5-c]pyridin-2-yl)-1H-indazol-5-yl)pyridin-3-yl)methanamine]",332 nM,608 nM

# Compounds with a lower IC50 [2], results first:
IC50 [2],Compound,EC50 [1]
< 1 nM,"Cc1cn(-c2nccc3[nH]c(-c4n[nH]c5ccc(-c6cncc(NC(=O)C7CCC7)c6)cc45)nc23)cn1 [Compound 202, N-(5-(3-(4-(4-Methyl-1H-imidazol-1-yl)-1H-imidazo[4,5-c]pyridin-2-yl)-1H-indazol-5-yl)pyridin-3-yl)cyclobutanecarboxamide]",13 nM
21 nM,"CN1CCN(c2nccc3[nH]c(-c4n[nH]c5ccc(-c6cncnc6)cc45)nc23)CC1 [Compound 234, 4-(4-Methylpiperazin-1-yl)-2-(5-(pyrimidin-5-yl)-1H-indazol-3-yl)-1H-imidazo[4,5-c]pyridine]",280 nM
3 nM,"Cc1ccncc1-c1ccc2[nH]nc(-c3nc4c(-c5ccsc5)nccc4[nH]3)c2c1 [Compound 239, 2-(5-(4-Methylpyridin-3-yl)-1H-indazol-3-yl)-4-(thiophen-3-yl)-1H-imidazo[4,5-c]pyridine]",60 nM
1 nM,"CCCC(=O)Nc1cncc(-c2ccc3[nH]nc(-c4nc5c(-c6ccsc6)nccc5[nH]4)c3c2)c1 [Compound 251, N-(5-(3-(4-(Thiophen-3-yl)-1H-imidazo[4,5-c]pyridin-2-yl)-1H-indazol-5-yl)pyridin-3-yl)butyramide]",18 nM
7 nM,"c1ccc(CNCc2cncc(-c3ccc4[nH]nc(-c5nc6c(-c7ccsc7)nccc6[nH]5)c4c3)c2)cc1 [Compound 257, N-Benzyl-1-(5-(3-(4-(thiophen-3-yl)-1H-imidazo[4,5-c]pyridin-2-yl)-1H-indazol-5-yl)pyridin-3-yl)methanamine]",9 nM
< 1 nM,"CC(C)Nc1cncc(-c2ccc3[nH]nc(-c4nc5c(-c6ccoc6)nccc5[nH]4)c3c2)c1 [Compound 272, 5-(3-(4-(Furan-3-yl)-1H-imidazo[4,5-c]pyridin-2-yl)-1H-indazol-5-yl)-N-isopropylpyridin-3-amine]",9 nM
15 nM,"CCCCC(=O)Nc1cncc(-c2ccc3[nH]nc(-c4nc5c(-c6ccoc6)nccc5[nH]4)c3c2)c1 [Compound 278, N-(5-(3-(4-(Furan-3-yl)-1H-imidazo[4,5-c]pyridin-2-yl)-1H-indazol-5-yl)pyridin-3-yl)pentanamide]",291 nM
10 nM,"CCC(=O)Nc1cncc(-c2ccc3[nH]nc(-c4nc5c(-c6cccs6)nccc5[nH]4)c3c2)c1 [Compound 287, N-(5-(3-(4-(Thiophen-2-yl)-1H-imidazo[4,5-c]pyridin-2-yl)-1H-indazol-5-yl)pyridin-3-yl)propionamide]",62 nM
9 nM,"CN(C)c1cncc(-c2ccc3[nH]nc(-c4nc5c(-c6cccs6)nccc5[nH]4)c3c2)c1 [Compound 293, N,N-Dimethyl-5-(3-(4-(thiophen-2-yl)-1H-imidazo[4,5-c]pyridin-2-yl)-1H-indazol-5-yl)pyridin-3-amine]",36 nM
